27 compounds from US20230322789A1, “PYRAZOLOPYRIDAZINONE COMPOUND, AND PHARMACEUTICAL COMPOSITION AND USE THEREOF” (BroadenBio Co., Ltd., priority 2020, published 2023) can be followed below.

One assay addresses HPK1 (Homo sapiens (Human), UniProt Q92918). As to the kind of experiment: HPK1 kinase activity inhibition test (ADP-Glo, luminescence). The following applies: HPK1 5 nM, ATP 2 μM, read-out: IC50, inhibitory effects of compounds on HPK1 kinase activity. It counts as biochemical. In short, it runs like this:
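HPK1 autophosphorylation was run without added substrate. Kinase and compound were preincubated 10 min at 25° C., then ATP was added for 60 min at 25° C. ADP formed was detected by ADP-Glo luminescence, and IC50 was taken from a four-parameter nonlinear fit.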

The next assay concerns Human Jurkat-E6-1 cells. In words: Measurement of IL-2 secretion of Jurkat cells by ELISA. It counts as cell-based. The settings on record: Homo sapiens, Jurkat E6.1, anti-CD3/anti-CD28 stimulation 24 hours, read-out: Percentage of the amount of IL-2 secreted from compound treated/DMSO-treated cells; for activity at 3 µM: test compound 3.0 μM; for activity at 0.33 µM: test compound 0.33 μM; for activity at 1 µM: test compound 1.0 μM. In short, it runs like this: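 Jurkat-E6-1 cells pre-incubated with compound for 30 min at 37° C, then stimulated 24 h with plate-bound anti-CD3 plus soluble anti-CD28. Secreted IL-2 in medium quantified by sandwich ELISA against a standard curve; expressed as percent of DMSO-treated cells.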
In general terms: An ELISA detects its analyte on a solid surface through an enzyme-linked reagent.

Where a name gives a salt, the structure may show the parent alone.

Sequence of HPK1 (Q92918 whole entry): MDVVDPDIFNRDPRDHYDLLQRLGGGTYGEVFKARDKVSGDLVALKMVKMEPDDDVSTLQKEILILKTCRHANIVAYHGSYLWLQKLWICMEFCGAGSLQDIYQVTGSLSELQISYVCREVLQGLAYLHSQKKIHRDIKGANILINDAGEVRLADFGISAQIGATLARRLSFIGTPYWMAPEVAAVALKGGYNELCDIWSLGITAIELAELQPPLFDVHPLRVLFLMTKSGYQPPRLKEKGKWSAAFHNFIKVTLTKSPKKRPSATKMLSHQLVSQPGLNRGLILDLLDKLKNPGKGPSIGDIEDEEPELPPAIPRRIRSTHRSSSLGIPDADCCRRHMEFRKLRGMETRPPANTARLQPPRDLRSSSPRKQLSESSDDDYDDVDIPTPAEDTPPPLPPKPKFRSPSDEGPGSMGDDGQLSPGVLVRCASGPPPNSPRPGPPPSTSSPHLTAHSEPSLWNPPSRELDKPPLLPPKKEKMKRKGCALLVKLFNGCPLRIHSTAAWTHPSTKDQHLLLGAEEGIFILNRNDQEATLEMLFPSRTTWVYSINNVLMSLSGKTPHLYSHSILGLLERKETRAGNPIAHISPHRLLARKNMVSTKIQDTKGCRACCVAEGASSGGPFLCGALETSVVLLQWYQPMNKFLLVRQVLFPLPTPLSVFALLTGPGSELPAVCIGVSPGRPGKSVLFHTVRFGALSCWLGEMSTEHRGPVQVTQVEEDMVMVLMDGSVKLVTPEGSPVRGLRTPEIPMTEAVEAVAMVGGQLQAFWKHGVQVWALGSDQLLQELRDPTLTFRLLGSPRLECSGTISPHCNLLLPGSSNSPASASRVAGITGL

As usually defined, the IC50 is the concentration that gives 50% inhibition. For `Cc1cccc(F)c1-n1nc2c(-c3ccc(N4CC5CCC(C4)N5C)cc3)n[nH]c2cc1=O` [Compound 61, 5-(2-fluoro-6-methylphenyl)-3-(4-(8-methyl-3,8-diazabicyclo[3.2.1]octan-3-yl)phenyl)-1H-pyrazolo[4,3-c]pyridazin-6(5H)-one], at HPK1, the half-inhibitory concentration (IC50) is at most 50 nM. In addition, in the assay with Human Jurkat-E6-1 cells, the activity at 3 µM is 635%.
For `CCc1cccc(F)c1-n1nc2c(-c3ccc4c(c3)CN(C)CC4)n[nH]c2cc1=O` [Compound 160, 5-(2-ethyl-6-fluorophenyl)-3-(2-methyl-1,2,3,4-tetrahydroisoquinolin-7-yl)-1H-pyrazolo[4,3-c]pyridazin-6(5H)-one], the half-maximal inhibitory concentration (IC50) at HPK1 was at most 50 nM. Also, the activity at 3 µM with Human Jurkat-E6-1 cells came out at 354%.
Turning to `CCc1cccc(F)c1-n1nc2c(-c3ccc(N4CCN(C)CC4)cc3)n[nH]c2cc1=O` [Compound 8, 5-(2-ethyl-6-fluorophenyl)-3-(4-(4-methylpiperazin-1-yl)phenyl)-1H-pyrazolo[4,3-c]pyridazin-6(5H)-one], the IC50 at HPK1 is at most 50 nM. Further, the activity at 0.33 µM with Human Jurkat-E6-1 cells worked out at 306%.
With `COc1cccc(F)c1-n1nc2c(-c3cccc(N4CC5CCC(C4)N5C)c3)n[nH]c2cc1=O` [Compound 202, 5-(2-fluoro-6-methoxyphenyl)-3-(3-(8-methyl-3,8-diazabicyclo[3.2.1]octan-3-yl)phenyl)-1H-pyrazolo[4,3-c]pyridazin-6(5H)-one], the IC50 at HPK1 is at most 50 nM. Further, the activity at 1 µM with Human Jurkat-E6-1 cells was determined as 539%.
In the case of `Cc1cc(-c2n[nH]c3cc(=O)n(-c4c(C)cccc4F)nc23)cc(C)c1N1CCN(C)CC1` [Compound 13], the IC50 at HPK1 was in the range of 50 to 500 nM. Further, the activity at 3 µM in the assay with Human Jurkat-E6-1 cells is 315%.
On to `COc1cccc(F)c1-n1nc2c(-c3ccc(N4CCOCC4)nc3)n[nH]c2cc1=O` [Compound 27, 5-(2-fluoro-6-methoxyphenyl)-3-(6-morpholinopyrid-3-yl)-1H-pyrazolo[4,3-c]pyridazin-6(5H)-one], for which, at HPK1, the IC50 is at most 50 nM. Moreover, in the assay with Human Jurkat-E6-1 cells, the activity at 0.33 µM was determined as 302%.
Consider `CN1CCN(c2ccc(-c3n[nH]c4cc(=O)n(-c5c(O)cccc5F)nc34)cn2)CC1` [Compound 100, 5-(2-fluoro-6-hydroxylphenyl)-3-(6-(4-methylpiperazin-1-yl)pyrid-3-yl)-1H-pyrazolo[4,3-c]pyridazin-6(5H)-one hydrobromide], for which the IC50 at HPK1 was in the range of 50 to 500 nM. Also, the activity at 3 µM with Human Jurkat-E6-1 cells was 284%.
With `Cc1cccc(F)c1-n1nc2c(-c3ccc(N4CCC(N5CCN(C)CC5)CC4)cc3)n[nH]c2cc1=O` [Compound 143, 5-(2-fluoro-6-methylphenyl)-3-(4-(4-(4-methylpiperazin-1-yl)piperidin-1-yl)phenyl)-1H-pyrazolo[4,3-c]pyridazin-6(5H)-one], the IC50 on HPK1 was at most 50 nM. Also, the activity at 3 µM in the assay on Human Jurkat-E6-1 cells turned out to be 786%.
As to `Cc1cccc(F)c1-n1nc2c(-c3ccc(N4CCN(C)CC4)cc3)n[nH]c2cc1=O` [Compound 1, 5-(2-fluoro-6-methylphenyl)-3-(4-(4-methylpiperazin-1-yl)phenyl)-1H-pyrazolo[4,3-c]pyridazin-6(5H)-one], the concentration for half-maximal inhibition (IC50) at HPK1 was at most 50 nM. In the assay on Human Jurkat-E6-1 cells, the activity at 1 µM amounted to 277%.
Turning to `Cc1cccc(F)c1-n1nc2c(-c3ccc(N4CCN(CCO)CC4)nc3)n[nH]c2cc1=O` [Compound 118, 5-(2-fluoro-6-methylphenyl)-3-(6-(4-(2-hydroxyethyl)piperazin-1-yl)pyrid-3-yl)-1H-pyrazolo[4,3-c]pyridazin-6(5H)-one], the IC50 at HPK1 is at most 50 nM. Further, the activity at 3 µM in the assay on Human Jurkat-E6-1 cells was found to be 550%.
For the compound `Cc1cccc(F)c1-n1nc2c(-c3ccc(N4CCN(C)CC4)nc3)n[nH]c2cc1=O` [Compound 11, 5-(2-fluoro-6-methylphenyl)-3-(6-(4-methylpiperazin-1-yl)pyrid-3-yl)-1H-pyrazolo[4,3-c]pyridazin-6(5H)-one], on HPK1, the IC50 is 50 to 500 nM. In addition, the activity at 1 µM with Human Jurkat-E6-1 cells came to 296%.
For `COc1cccc(F)c1-n1nc2c(-c3ccc(N4CCC(C)(O)CC4)cc3)n[nH]c2cc1=O` [Compound 140, 5-(2-fluoro-6-methoxyphenyl)-3-(4-(4-hydroxyl-4-methylpiperidin-1-yl)phenyl)-1H-pyrazolo[4,3-c]pyridazin-6(5H)-one], at HPK1, the concentration for half-maximal inhibition (IC50) was at most 50 nM. Also, in the assay on Human Jurkat-E6-1 cells, the activity at 3 µM is 436%.
The like results for `CCc1cccc(F)c1-n1nc2c(-c3cccc(N4CCN(C)CC4)c3)n[nH]c2cc1=O` [Compound 200, 5-(2-ethyl-6-fluorophenyl)-3-(3-(4-methylpiperazin-1-yl)phenyl)-1H-pyrazolo[4,3-c]pyridazin-6(5H)-one] were, in that order, at most 50 nM and 286%.
On the same counts, the results for `COc1cc(C#N)cc(F)c1-n1nc2c(-c3ccc(N4CCN(CCO)CC4)cc3)n[nH]c2cc1=O` [Compound 114, 3-fluoro-4-(3-(4-(4-(2-hydroxyethyl)piperazin-1-yl)phenyl)-6-oxo-1H-pyrazolo[4,3-c]pyridazin-5(6H)-yl)-5-methoxybenzonitrile] are at most 50 nM and 309%.
The like results for `COc1cc(C#N)cc(F)c1-n1nc2c(-c3ccc(N4CCN(C)CC4)cc3)n[nH]c2cc1=O` [Compound 74, 3-fluoro-5-methoxy-4-(3-(4-(4-methylpiperazin-1-yl)phenyl)-6-oxo-1H-pyrazolo[4,3-c]pyridazin-5(6H)-yl)benzonitrile] were, in that order, at most 50 nM and 411%.
Regarding `CN1CCN(c2ccc(-c3n[nH]c4cc(=O)n(-c5ccccc5F)nc34)cc2)CC1` [Compound 6, 5-(2-fluorophenyl)-3-(4-(4-methylpiperazin-1-yl)phenyl)-1H-pyrazolo[4,3-c]pyridazin-6(5H)-one], on HPK1, the IC50 was at most 50 nM. In the assay on Human Jurkat-E6-1 cells, the activity at 1 µM was 185%.
In the case of `Cc1cccc(F)c1-n1nc2c(-c3ccc(N4CCN(C)C(CO)C4)nc3)n[nH]c2cc1=O` (stereo not drawn) [Compound 128, 5-(2-fluoro-6-methylphenyl)-3-(6-(3-(hydroxymethyl)-4-methylpiperazin-1-yl)pyrid-3-yl)-1H-pyrazolo[4,3-c]pyridazin-6(5H)-one], the IC50 at HPK1 was at most 50 nM. The activity at 3 µM with Human Jurkat-E6-1 cells was 472%.
On the same counts, the results for `CCc1cccc(F)c1-n1nc2c(-c3ccc(N4CCN(C)CC4)nc3)n[nH]c2cc1=O` [Compound 98, 5-(2-ethyl-6-fluorophenyl)-3-(6-(4-methylpiperazin-1-yl)pyrid-3-yl)-1H-pyrazolo[4,3-c]pyridazin-6(5H)-one] are at most 50 nM and 850%.
On the same counts, the results for `COc1cccc(F)c1-n1nc2c(-c3ccc(N4CCN(C)C(C(C)(C)O)C4)cc3)n[nH]c2cc1=O` (stereo not drawn) [Compound 126] are at most 50 nM and 428%.
Regarding `Cc1cccc(F)c1-n1nc2c(-c3ccc4c(c3)CN(C(C)CO)CC4)n[nH]c2cc1=O` (stereo not drawn) [Compound 165, 5-(2-fluoro-6-methylphenyl)-3-(2-(1-hydroxylprop-2-yl)-1,2,3,4-tetrahydroisoquinolin-7-yl)-1H-pyrazolo[4,3-c]pyridazin-6(5H)-one], the IC50 at HPK1 lay in the range of 50 to 500 nM. The activity at 1 µM in the assay with Human Jurkat-E6-1 cells is 181%.
On the same counts, the results for `COc1cc(F)cc(F)c1-n1nc2c(-c3ccc(N4CCN(C)CC4)cc3)n[nH]c2cc1=O` [Compound 77, 5-(2,4-difluoro-6-methoxyphenyl)-3-(4-(4-methylpiperazin-1-yl)phenyl)-1H-pyrazolo[4,3-c]pyridazin-6(5H)-one] are at most 50 nM and 233%.
With `Cc1cccc(F)c1-n1nc2c(-c3ccc4c(c3)CN(C3CC(N)C3)CC4)n[nH]c2cc1=O` (stereo not drawn) [Compound 163], the IC50 at HPK1 was 50 to 500 nM. For the same compound, in the assay on Human Jurkat-E6-1 cells, the activity at 3 µM turned out to be 117%.
As for `Cc1cccc(F)c1-n1nc2c(-c3ccc(N4CCC(N5CCOCC5)CC4)cc3)n[nH]c2cc1=O` [Compound 142, 5-(2-fluoro-6-methylphenyl)-3-(4-(4-morpholinopiperidin-1-yl)phenyl)-1H-pyrazolo[4,3-c]pyridazin-6(5H)-one], the IC50 at HPK1 is at most 50 nM. The activity at 3 µM in the assay on Human Jurkat-E6-1 cells amounted to 708%.
The like results for `COc1ccncc1-n1nc2c(-c3ccc(C4=CCN(C)CC4)cc3)n[nH]c2cc1=O` [Compound 151, 5-(4-methoxypyrid-3-yl)-3-(4-(1-methyl-1,2,3,6-tetrahydropyridin-4-yl)phenyl)-1H-pyrazolo[4,3-c]pyridazin-6(5H)-one] were, in that order, 50 to 500 nM and 230%.
The like results for `COc1cccc(F)c1-n1nc2c(-c3ccc(N4CCN(CCO)CC4)cc3)n[nH]c2cc1=O` [Compound 113, 5-(2-fluoro-6-methoxyphenyl)-3-(4-(4-(2-hydroxyethyl)piperazin-1-yl)phenyl)-1H-pyrazolo[4,3-c]pyridazin-6(5H)-one] were, in that order, at most 50 nM and 368%.
The like results for `Cc1cccc(F)c1-n1nc2c(-c3ccc4c(c3)CN(C3CNC3)CC4)n[nH]c2cc1=O` [Compound 164, 3-(2-(azetidin-3-yl)-1,2,3,4-tetrahydroisoquinolin-7-yl)-5-(2-fluoro-6-methylphenyl)-1H-pyrazolo[4,3-c]pyridazin-6(5H)-one hydrochloride] were, in that order, 50 to 500 nM and 159%.
Turning to `COc1cccc(F)c1-n1nc2c(-c3cccc(N4CCN(C)CC4)c3)n[nH]c2cc1=O` [Compound 199, 5-(2-fluoro-6-methoxyphenyl)-3-(3-(4-methylpiperazin-1-yl)phenyl)-1H-pyrazolo[4,3-c]pyridazin-6(5H)-one], the IC50 on HPK1 was at most 50 nM. Also, in the assay on Human Jurkat-E6-1 cells, the activity at 1 µM was determined as 328%.
